According to patent publication US7534808B2, “Indolylmaleimide derivatives” (priority 2002, dated 2009):

Tests used:
Human recombinant PKCε = target: T1, Human recombinant PKCε (Homo sapiens, UniProt Q02156); assay: Protein Kinase Cε Assay; assay type: biochemical
T1 construct: purchased Oxford Biomedical Research
T1 sequence (Q02156 1-737): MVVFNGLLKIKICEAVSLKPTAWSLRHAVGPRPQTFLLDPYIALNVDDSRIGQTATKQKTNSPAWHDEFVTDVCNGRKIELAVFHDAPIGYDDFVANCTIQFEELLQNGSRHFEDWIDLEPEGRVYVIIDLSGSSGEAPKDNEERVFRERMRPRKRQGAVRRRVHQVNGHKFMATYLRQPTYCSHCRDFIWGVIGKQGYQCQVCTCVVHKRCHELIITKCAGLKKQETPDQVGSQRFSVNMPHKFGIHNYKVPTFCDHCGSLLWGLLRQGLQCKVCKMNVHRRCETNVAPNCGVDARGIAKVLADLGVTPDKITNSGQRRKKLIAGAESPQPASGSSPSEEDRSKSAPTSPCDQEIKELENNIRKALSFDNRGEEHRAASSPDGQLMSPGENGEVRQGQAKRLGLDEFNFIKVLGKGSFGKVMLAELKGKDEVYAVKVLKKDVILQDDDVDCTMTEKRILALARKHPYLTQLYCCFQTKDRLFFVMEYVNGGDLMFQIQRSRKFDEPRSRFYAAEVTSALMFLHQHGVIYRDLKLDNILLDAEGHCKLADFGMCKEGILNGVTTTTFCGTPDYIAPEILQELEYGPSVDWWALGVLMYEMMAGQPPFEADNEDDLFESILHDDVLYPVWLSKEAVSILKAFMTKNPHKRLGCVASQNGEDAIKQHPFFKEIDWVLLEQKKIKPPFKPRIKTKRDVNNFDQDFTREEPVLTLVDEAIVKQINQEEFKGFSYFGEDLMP
Experimental: (§1) The compounds of formula I are tested for their activity on different PKC isoforms according to a published method (D. Geiges et al. Biochem. Pharmacol. 1997; 53:865-875) The assay is performed in a 96-well polypropylene microtiterplate (Costar 3794) that has been previously siliconized with Sigmacote (Sigma SL-2). The reaction mixture (50 μl) contains 10 μl of the relevant PKC isozyme together with 25 μl of the test compound and 15 μl of a mix solution that contains 200 μg/ml protamine sulfate, 10 mM Mg(NO3)2, 10 μM ATP (Boehringer 519987) and 3750 Bq of ^33P-ATP (Hartmann Analytic SFC301, 110TBq/mmol) in 20 mM Tris-buffer pH 7.4+0.1% BSA. Incubation is performed for 15 min at 32° C. in a microtiterplate shaking incubator (Biolabo Scientific Instruments). Reaction is stopped by adding 10 μl of 0.5 M Na2EDTA, pH 7.4. 50 μl of mixture are pipetted onto a pre-wetted phosphocellulose paper (Whatmann 3698-915) under gentle pressure. Non-incorporated ATP is washed away with 100 μl bi-dist H2O. The paper is washed twice in 0.5% H3PO4 for 15 min followed by 5 min in EtOH. Thereafter the paper is dryed and placed in an omnifilter (Packard 6005219), and overlayed with 10 μl/well of Microscint-O (Packard 6013611) before counting in a Topcount radioactivity counter (Packard). […] IC50 values are calculated from the graph by sigmoidal curve fitting. […]

Human recombinant PKCθ = Human recombinant PKCθ (Homo sapiens, UniProt Q04759); assay: Protein Kinase C θ Assay; assay type: biochemical
Experimental: as §1

Sequence of Human recombinant PKCθ (Q04759 whole entry): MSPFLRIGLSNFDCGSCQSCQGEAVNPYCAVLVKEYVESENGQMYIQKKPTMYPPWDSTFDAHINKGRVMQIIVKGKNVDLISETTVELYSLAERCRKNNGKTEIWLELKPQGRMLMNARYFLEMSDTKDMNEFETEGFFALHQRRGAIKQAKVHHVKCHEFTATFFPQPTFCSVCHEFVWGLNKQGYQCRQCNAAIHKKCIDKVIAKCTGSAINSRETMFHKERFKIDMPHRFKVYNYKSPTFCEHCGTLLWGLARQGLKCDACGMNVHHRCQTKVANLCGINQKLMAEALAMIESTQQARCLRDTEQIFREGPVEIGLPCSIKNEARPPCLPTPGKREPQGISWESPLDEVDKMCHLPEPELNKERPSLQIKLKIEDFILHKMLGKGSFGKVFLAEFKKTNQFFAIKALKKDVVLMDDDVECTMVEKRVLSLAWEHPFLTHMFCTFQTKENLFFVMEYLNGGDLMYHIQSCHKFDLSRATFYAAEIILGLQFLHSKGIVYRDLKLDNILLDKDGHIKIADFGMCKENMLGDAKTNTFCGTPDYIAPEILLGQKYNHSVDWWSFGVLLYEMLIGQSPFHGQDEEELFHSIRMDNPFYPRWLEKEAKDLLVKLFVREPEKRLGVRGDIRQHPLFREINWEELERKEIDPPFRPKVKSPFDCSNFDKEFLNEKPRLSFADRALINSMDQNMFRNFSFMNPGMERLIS

IC50 (Human recombinant PKCε): 18 nM
IC50 (Human recombinant PKCθ): 12.1 nM
Compound: Cc1cccc2c(C3=C(c4nc(N5CCNC6(CC6)C5)cc5ccccc45)C(=O)NC3=O)c[nH]c12 [Example 69, 3-[3-(4,7-Diaza-spiro[2.5]oct-7-yl)-isoquinolin-1-yl]-4-(7-methyl-1H-indol-3-yl)-pyrrole-2,5-dione]
